Results taken from PMC9735621, “Synthesis, Biological Evaluation and Computational Studies of New Hydrazide Derivatives Containing 1,3,4-Oxadiazole as Antitubercular Agents” (International Journal of Molecular Sciences, 2022).
Values joined by “and” are separate entries in the source; they are usually repeats but may differ in a detail not shown here. Equal values may be shown once. Read-outs that look alike come from different tables or passages of the source.

Key:
M. tuberculosis H37Ra = test: microbe, parasite or virus in culture; assay type: cell-based, Mycobacterium tuberculosis
M. tuberculosis H37Rv = test: microbe, parasite or virus in culture; assay type: cell-based; details: Mycobacterium tuberculosis
[1] = Cytotoxicity, resazurin cell viability assay; assay type: cell-based, human; details: human, SH-SY5Y neuroblastoma cells; SH-SY5Y cells, 48 h; mean ± SEM
Description: (§1) Cell viability was assayed by using Resazurin (SERVA Electrophoresis GmbH, Heidelberg, Germany). This cell-permeable dye is reduced by aerobic respiration of metabolically active cells to resorufin, whose fluorescence is proportional to the number of live cells. The stock solution of resazurin sodium salt (440 μM, 10×) was resuspended in Phosphate Buffered Saline (PBS) and stored at −20 °C. Working solution (44 μM) was prepared on the same day of each assay by diluting resazurin stock solution in a standard culture medium. The human neuroblastoma cell line SH-SY5Y was used to test the cytotoxicity of five selected compounds (1h, and 1k–n). The cells were maintained in Dulbecco’s modified Eagle’s medium (DMEM; Gibco, Life Technologies Inc., Frederick, MD, USA) supplemented with 10% (v/v) fetal bovine serum (FBS) and Antibiotic Antimycotic Solution (100 U penicillin, 100 μg/mL streptomycin and 0.25 μg/mL amphotericin B; Sigma-Aldrich, St. Louis, MO, USA) at 37 °C in a humidified incubator with a 5% CO2/95% air atmosphere.
(§2) In the cytotoxicity tests, SH-SY5Y cells were seeded at a density of 5 × 10^3 cells/well in a 96-well plate and grown for another 24 h. Cells were then treated in triplicate with serial dilutions (100 μM, 50 μM, 25 μM, 12.5 μM, 6.25 μM, 3.125 μM) of selected compounds. After 48 h, the culture medium in each well was replaced with 100 μL of Resazurin working solution (44 μM). The fluorescent signal of the resorufin was monitored with Excitation λ = 530 nm and Emission λ = 590 nm by using an Envision 2104 Multi-label Microplate Reader (Perkin Elmer, Boston, MA, USA). Measurements were performed at time 0 and after 1 h of incubation. The percentage of viability was calculated after subtraction of the background (obtained by killing the cells), on the basis of the ratio between the fluorescence values of the cells incubated with a compound and the fluorescence values of cells incubated with the solvent (1% DMSO). The viability of cells incubated with 1% DMSO was considered to be equivalent to 100%. The statistical analysis was carried out with GraphPad Prism 6 (GraphPad Software, Inc., La Jolla, CA, USA) software using an unpaired t-test, and a p-value < 0.05 was considered statistically significant. Cytotoxicity (CC50) was determined from dose-response curves analyzed by using GraphPad Prism software.

SH-SY5Y cells = test: Cytotoxicity, resazurin cell viability assay; assay type: cell-based, human; details: for Cytotoxicity (in words): SH-SY5Y cells, tested concentrations up to 100 μM; for Viability (%) vs DMSO: SH-SY5Y, 48 h, average ± SEM
Description: as §1, §2

[2] = Mycobacterium tuberculosis, H37RA

Row | Compound | MIC (M. tuberculosis H37Ra; [2]) | MIC (M. tuberculosis H37Rv) [µg/mL] | melting point [°C] | MIC (M. tuberculosis H37Ra) | MIC (M. tuberculosis H37Rv; […], value in brackets) [µM] | CC50 at 48 h [1] [µM] | Cytotoxicity (in words) (SH-SY5Y cells) | Viability (%) vs DMSO (SH-SY5Y cells; 3.125 µM) [%] | Viability (%) vs DMSO (SH-SY5Y cells; 6.25 µM) [%] | Viability (%) vs DMSO (SH-SY5Y cells; 12.5 µM) [%] | Viability (%) vs DMSO (SH-SY5Y cells; 25 µM) [%] | Viability (%) vs DMSO (SH-SY5Y cells; 50 µM) [%] | Viability (%) vs DMSO (SH-SY5Y cells; 100 µM) [%]
1 | Cc1ccc(C=NNC(=O)c2nnc(-c3ccccc3)o2)cc1 (mixture of isomers) [1j, (E/Z)-N’-(4-methylbenzyliden)-5-phenyl-1,3,4-oxadiazol-2-carbohydrazide] | 16 µg/mL and 52.2 µM | > 64 | 200 to 202 |  |  |  |  |  |  |  |  |  | 
2 | O=C(N/N=C\c1ccccc1)c1nnc(-c2ccncc2)o1 [1a, (Z)-N’-benzyliden-5-(pyridin-4-yl)-1,3,4-oxadiazol-2-carbohydrazide] | 64 µg/mL and 218 µM | > 64 | 207 to 209 |  |  |  |  |  |  |  |  |  | 
3 | O=C(N/N=C\c1ccc(Cl)cc1)c1nnc(-c2ccncc2)o1 [1b, (Z)-N’-(4-chlorobenzyliden)-5-(pyridin-4-yl)-1,3,4-oxadiazol-2-carbohydrazide] | > 64 µg/mL | > 64 |  | >64 (-) μg/mL |  |  |  |  |  |  |  |  | 
4 | Cc1ccc(/C=N\NC(=O)c2nnc(-c3ccncc3)o2)cc1 [1c, (Z)-N’-(4-methylbenzyliden)-5-(pyridin-4-yl)-1,3,4-oxadiazol-2-carbohydrazide] | 64 µg/mL and 195 µM | > 64 |  |  |  |  |  |  |  |  |  |  | 
5 | O=C(N/N=C\c1ccc[nH]1)c1nnc(-c2ccncc2)o1 [1d, (Z)-N’-((1H-pyrrol-2-yl)methylen)-5-(pyridin-4-yl)-1,3,4-oxadiazol-2-carbohydrazide] | 64 µg/mL and 226 µM | > 64 |  |  |  |  |  |  |  |  |  |  | 
6 | O=C(N/N=C\c1ccccn1)c1nnc(-c2ccncc2)o1 [1e, (Z)-N’-(pyridin-2-ylmethylen)-5-(pyridin-4-yl)-1,3,4-oxadiazol-2-carbohydrazide] | 32 µg/mL and 108 µM | 16 | 255 to 259 |  | 54 |  |  |  |  |  |  |  | 
7 | O=C(N/N=C\c1ccncc1)c1nnc(-c2ccncc2)o1 [1f, (Z)-5-(pyridin-4-yl)-N’-(pyridin-4-ylmethylen)-1,3,4-oxadiazol-2-carbohydrazide] | 64 µg/mL and 217 µM | > 64 |  |  |  |  |  |  |  |  |  |  | 
8 | O=C(N/N=C\c1ccco1)c1nnc(-c2ccncc2)o1 [1g, (Z)-N’-(furan-2-ylmethylen)-5-(pyridin-4-yl)-1,3,4-oxadiazol-2-carbohydrazide] | 64 µg/mL and 226 µM | > 64 | 236 to 242 |  |  |  |  |  |  |  |  |  | 
9 | O=C(N/N=C\c1ccccc1)c1nnc(-c2ccccc2)o1 [1h, (Z)-N’-benzyliden-5-phenyl-1,3,4-oxadiazol-2-carbohydrazide] | 8 µg/mL and 27.4 µM | > 64 | 194 to 196 |  |  | > 100 | no cytotoxicity at tested concentrations | 100 ± 13 | 99 ± 13 | 99 ± 11 | 99 ± 15 | 100 ± 14 | 97 ± 12
10 | O=C(N/N=C\c1ccc(Cl)cc1)c1nnc(-c2ccccc2)o1 [1i, (Z)-N’-(4-chlorobenzyliden)-5-phenyl-1,3,4-oxadiazol-2-carbohydrazide] | 16 µg/mL and 48.9 µM | > 64 | 243 to 245 |  |  |  |  |  |  |  |  |  | 
11 | O=C(N/N=C\c1ccc[nH]1)c1nnc(-c2ccccc2)o1 [1k, (Z)-N’-((1H-pyrrol-2-yl)methylen)-5-phenyl-1,3,4-oxadiazol-2-carbohydrazide] | 8 µg/mL and 28.3 µM | 8 | 185 to 187 |  | 28.3 | 50 ± 6 |  | 100 ± 13 | 100 ± 13 | 101 ± 14 | 81 ± 12 | 49 ± 7 | 37 ± 6
12 | O=C(N/N=C\c1ccccn1)c1nnc(-c2ccccc2)o1 [1l, (Z)-5-phenyl-N’-(pyridin-2-ylmethylen)-1,3,4-oxadiazol-2-carbohydrazide] | 8 µg/mL and 27.4 µM | 8 | 242 to 243 |  | 27.1 | 100 ± 12 |  | 100 ± 12 | 100 ± 12 | 98 ± 13 | 93 ± 13 | 70 ± 10 | 49 ± 7
13 | O=C(N/N=C\c1ccncc1)c1nnc(-c2ccccc2)o1 [1m, (Z)-5-phenyl-N’-(pyridin-4-ylmethylen)-1,3,4-oxadiazol-2-carbohydrazide] | 8 µg/mL and 27.4 µM | > 64 | 243 to 245 |  |  | 128 ± 16 |  | 100 ± 14 | 100 ± 14 | 98 ± 16 | 96 ± 14 | 87 ± 11 | 61 ± 9
14 | O=C(N/N=C\c1ccco1)c1nnc(-c2ccccc2)o1 [1n, (Z)-N’-(furan-2-ylmethylen)-5-phenyl-1,3,4-oxadiazol-2-carbohydrazide] | 8 µg/mL and 28.3 µM | 16 | 221 to 223 |  | 56.6 | > 100 | no cytotoxicity at tested concentrations | 100 ± 11 | 100 ± 11 | 99 ± 15 | 100 ± 12 | 100 ± 13 | 97 ± 11
15 | NNC(=O)c1ccncc1 [INH, Isoniazid, reference compound] | 0.25 µg/mL and 1.8 µM | 0.25 |  |  | 1.8 |  |  |  |  |  |  |  | 
16 | CO[C@H]1/C=C/O[C@@]2(C)Oc3c(C)c(O)c4c(O)c(c(/C=N/N5CCN(C)CC5)c(O)c4c3C2=O)NC(=O)/C(C)=C\C=C\[C@H](C)[C@H](O)[C@@H](C)[C@@H](O)[C@@H](C)[C@H](OC(C)=O)[C@@H]1C [RIF, reference compound] |  | 0.5 |  |  | 0.6 |  |  |  |  |  |  |  | 
